# Reference: US20240166624A1, “PPARG INVERSE AGONISTS AND USES THEREOF” (Flare Therapeutics Inc., priority 2021, published 2024)
# Columns and labels:
# [1] = biological target: T1, PPARG/RXRA LBD heterodimer (Homo sapiens, UniProt P37231); assay: PPARγ-NCOR1 recruitment assay (TR-FRET, biotinylated NCOR1 ID2 peptide); format: biochemical; conditions: 80 nM Rosiglitazone, 3 hours, read-out: PPARG-NCOR recruitment assay EC50
# T1 construct: His-TEV-Q203-Y477; Uniprot ID P37231-2; made in house; host or cells: E. coli
# How it was run: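 2 nM each of E. coli-expressed PPARG LBD (Q203-Y477) and RXRA LBD (WT or S427F, E228-T462) with biotinylated NCOR1 ID2 peptide, incubated 3 h; TR-FRET read at Ex/Em 615/665. Ratios normalized to DMSO (0%) and T0070907 maximum (100%) for EC50 and maximal recruitment.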
# T1 sequence (O75376 2251-2273 partner, one chain of several): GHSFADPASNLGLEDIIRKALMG
# [2] = biological target: T2, PPARG/RXRA LBD heterodimer (Homo sapiens, UniProt P37231); assay: PPARγ-MED1 blockade assay (TR-FRET, biotinylated MED1 LxxLL peptide); format: biochemical; conditions: WT PPARG LBD/WT RXRA LBD, 80 nM Rosiglitazone, 3 hours
# T2 construct: His-TEV-Q203-Y477; Uniprot ID P37231-2; made in house; host or cells: E. coli
# T2 sequence (P37231 203-477 isoform P37231-2): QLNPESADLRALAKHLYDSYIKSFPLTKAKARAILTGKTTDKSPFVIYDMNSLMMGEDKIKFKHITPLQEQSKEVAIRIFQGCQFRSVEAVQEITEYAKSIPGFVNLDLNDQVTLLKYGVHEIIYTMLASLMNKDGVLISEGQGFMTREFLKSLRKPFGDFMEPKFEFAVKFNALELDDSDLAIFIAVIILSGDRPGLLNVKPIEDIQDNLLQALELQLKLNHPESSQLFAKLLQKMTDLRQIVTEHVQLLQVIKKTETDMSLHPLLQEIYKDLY
# T2 sequence (P19793 228-462 partner limits assumed): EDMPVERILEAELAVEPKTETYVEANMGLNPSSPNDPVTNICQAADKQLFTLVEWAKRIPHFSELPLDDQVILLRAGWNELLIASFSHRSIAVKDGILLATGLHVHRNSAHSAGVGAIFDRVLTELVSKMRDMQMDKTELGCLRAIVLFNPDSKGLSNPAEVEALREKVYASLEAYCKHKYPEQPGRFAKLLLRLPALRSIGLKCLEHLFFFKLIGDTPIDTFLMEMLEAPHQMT
# How it was run: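 TR-FRET measuring biotinylated MED1 LxxLL peptide association with 2 nM each His-PPARG LBD (Q203-Y477) and Flag-RXRA LBD (E228-T462), E. coli expressed. Read after 3 h incubation; ratios normalized to DMSO (0%) and GW9662 minimum (100%) for IC50 and maximal MED1 repulsion.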
# [3] = test system: ANGPTL4, a PPARG target gene, in HT1197 (RXRA S427F mutation) cells; assay: Bladder cancer pharmacodynamic assay, HT1197 cell assay (qPCR of ANGPTL4); format: cell-based; conditions: Homo sapiens, 24 hours, 100 nM compound, relative to DMSO control
# How it was run: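 5637 (PPARG amplified) and HT1197 (RXRA S427F) cells treated 24 h with PPARG inverse agonists. FABP4 and ANGPTL4 expression measured by qPCR, normalised to TBP, and reported relative to DMSO control by ΔΔCt.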
Structure (SMILES),EC50 [1],EC50 [2],inhibition at 0.1 µM [3]
"CC(=O)N1CCN(c2c(F)cc3[nH]c(-c4cc(C#N)ccc4Cl)cc(=O)c3c2F)CC1 [Example 96, 3-(6-(4-acetylpiperazin-1-yl)-5,7-difluoro-4-oxo-1,4-dihydroquinolin-2-yl)-4-chlorobenzonitrile]",1000 to 10000 nM,1000 to 10000 nM,82%
"N#Cc1ccc(Cl)c(-c2cc(=O)c3c(F)c(-c4cc[nH]n4)c(F)cc3[nH]2)c1 [Example 97, 4-chloro-3-(5,7-difluoro-4-oxo-6-(1H-pyrazol-3-yl)-1,4-dihydroquinolin-2-yl)benzonitrile]",100 to 1000 nM,100 to 1000 nM,52%
"N#Cc1ccc(Cl)c(-c2cc(=O)c3c(F)c(N4CC5(COC5)C4)c(F)cc3[nH]2)c1 [Example 98, 4-chloro-3-(5,7-difluoro-4-oxo-6-(2-oxa-6-azaspiro[3.3]heptan-6-yl)-14-dihydroquinolin-2-yl)benzonitrile]",100 to 1000 nM,1000 to 10000 nM,87%
"CN1CC2(C1)CN(c1c(F)cc3[nH]c(-c4cc(C#N)ccc4Cl)cc(=O)c3c1F)C2 [Example 99, 4-chloro-3-(5,7-difluoro-6-(6-methyl-2,6-diazaspiro[3.3]heptan-2-yl)-4-oxo-1,4-dihydroquinolin-2-yl)benzonitrile]",> 10000 nM,> 10000 nM,59%
"CN(C)C1CN(c2c(F)cc3[nH]c(-c4cc(C#N)ccc4Cl)cc(=O)c3c2F)C1 [Example 100, 4-chloro-3-(6-(3-(dimethylamino)azetidin-1-yl)-5,7-difluoro-4-oxo-1,4-dihydroquinolin-2-yl)benzonitrile]",1000 to 10000 nM,1000 to 10000 nM,87%
"CS(=O)(=O)C1CN(c2c(F)cc3[nH]c(-c4cc(C#N)ccc4Cl)cc(=O)c3c2F)C1 [Example 101, 4-chloro-3-(5,7-difluoro-6-(3-(methylsulfonyl)azetidin-1-yl)-4-oxo-1,4-dihydroquinolin-2-yl)benzonitrile]",1000 to 10000 nM,1000 to 10000 nM,52%
"CN(C)C(=O)C1CN(c2c(F)cc3[nH]c(-c4cc(C#N)ccc4Cl)cc(=O)c3c2F)C1 [Example 102, 1-(2-(2-chloro-5-cyanophenyl)-5,7-difluoro-4-oxo-1,4-dihydroquinolin-6-yl)-N,N-dimethylazetidine-3-carboxamide]",1000 to 10000 nM,1000 to 10000 nM,81%
"COC1CN(c2c(F)cc3[nH]c(-c4cc(C#N)ccc4Cl)cc(=O)c3c2F)C1 [Example 103, 4-chloro-3-(5,7-difluoro-6-(3-methoxyazetidin-1-yl)-4-oxo-1,4-dihydroquinolin-2-yl)benzonitrile]",1000 to 10000 nM,1000 to 10000 nM,82%
"CO[C@H]1CCN(c2c(F)cc3[nH]c(-c4cc(C#N)ccc4Cl)cc(=O)c3c2F)C1 [Example 104, (S)-4-chloro-3-(5,7-difluoro-6-(3-methoxypyrrolidin-1-yl)-4-oxo-1,4-dihydroquinolin-2-yl)benzonitrile]",100 to 1000 nM,100 to 1000 nM,78%
"CN1CCN(c2cc3c(=O)cc(-c4cc(C#N)ccc4Cl)[nH]c3cc2Cl)CC1 [Example 105, 4-chloro-3-(7-chloro-6-(4-methylpiperazin-1-yl)-4-oxo-1,4-dihydroquinolin-2-yl)benzonitrile]",1000 to 10000 nM,1000 to 10000 nM,60%
"CO[C@@H]1CCN(c2c(F)cc3[nH]c(-c4cc(C#N)ccc4Cl)cc(=O)c3c2F)C1 [Example 106, (R)-4-chloro-3-(5,7-difluoro-6-(3-methoxypyrrolidin-1-yl)-4-oxo-1,4-dihydroquinolin-2-yl)benzonitrile]",100 to 1000 nM,100 to 1000 nM,75%
"N#Cc1ccc(Cl)c(-c2cc(=O)c3c(F)c(N4CCOCC4)c(F)cc3[nH]2)c1 [Example 107, 4-chloro-3-(5,7-difluoro-6-morpholino-4-oxo-1,4-dihydroquinolin-2-yl)benzonitrile]",100 to 1000 nM,100 to 1000 nM,80%
"CN(C)[C@H]1CCN(c2c(F)cc3[nH]c(-c4cc(C#N)ccc4Cl)cc(=O)c3c2F)C1 [Example 108, (S)-4-chloro-3-(6-(3-(dimethylamino)pyrrolidin-1-yl)-5,7-difluoro-4-oxo-1,4-dihydroquinolin-2-yl)benzonitrile]",1000 to 10000 nM,1000 to 10000 nM,65%
"CN(C)[C@@H]1CCN(c2c(F)cc3[nH]c(-c4cc(C#N)ccc4Cl)cc(=O)c3c2F)C1 [Example 109, (R)-4-chloro-3-(6-(3-(dimethylamino)pyrrolidin-1-yl)-5,7-difluoro-4-oxo-1,4-dihydroquinolin-2-yl)benzonitrile]",1000 to 10000 nM,1000 to 10000 nM,65%
"N#Cc1ccc(Cl)c(-c2cc(=O)c3c(F)c(N4CCS(=O)(=O)CC4)c(F)cc3[nH]2)c1 [Example 110, 4-chloro-3-(6-(1,1-dioxidothiomorpholino)-5,7-difluoro-4-oxo-1,4-dihydroquinolin-2-yl)benzonitrile]",1000 to 10000 nM,1000 to 10000 nM,37%
"CN1CCN(c2c(F)cc3[nH]c(-c4cc(C#N)ccc4Cl)cc(=O)c3c2F)CC1=O [Example 111, 4-chloro-3-(5,7-difluoro-6-(4-methyl-3-oxopiperazin-1-yl)-4-oxo-1,4-dihydroquinolin-2-yl)benzonitrile]",1000 to 10000 nM,1000 to 10000 nM,43%
"CN(C)C(=O)C1CCN(c2c(F)cc3[nH]c(-c4cc(C#N)ccc4Cl)cc(=O)c3c2F)CC1 [Example 112, 1-(2-(2-chloro-5-cyanophenyl)-5,7-difluoro-4-oxo-1,4-dihydroquinolin-6-yl)-N,N-dimethylpiperidine-4-carboxamide]",1000 to 10000 nM,1000 to 10000 nM,66%
"CN(C)C(=O)N1CCN(c2c(F)cc3[nH]c(-c4cc(C#N)ccc4Cl)cc(=O)c3c2F)CC1 [Example 113, 4-(2-(2-chloro-5-cyanophenyl)-5,7-difluoro-4-oxo-1,4-dihydroquinolin-6-yl)-N,N-dimethylpiperazine-1-carboxamide]",1000 to 10000 nM,1000 to 10000 nM,80%
"CN(C)C(=O)[C@@H]1CCCN(c2c(F)cc3[nH]c(-c4cc(C#N)ccc4Cl)cc(=O)c3c2F)C1 [Example 114, (R)-1-(2-(2-chloro-5-cyanophenyl)-5,7-difluoro-4-oxo-1,4-dihydroquinolin-6-yl)-N,N-dimethylpiperidine-3-carboxamide]",100 to 1000 nM,100 to 1000 nM,60%
"CN(C)C(=O)[C@H]1CCCN(c2c(F)cc3[nH]c(-c4cc(C#N)ccc4Cl)cc(=O)c3c2F)C1 [Example 115, (S)-1-(2-(2-chloro-5-cyanophenyl)-5,7-difluoro-4-oxo-1,4-dihydroquinolin-6-yl)-N,N-dimethylpiperidine-3-carboxamide]",100 to 1000 nM,1000 to 10000 nM,80%
"CN(C)C(=O)[C@@H]1CCN(c2c(F)cc3[nH]c(-c4cc(C#N)ccc4Cl)cc(=O)c3c2F)C1 [Example 116, (R)-1-(2-(2-chloro-5-cyanophenyl)-5,7-difluoro-4-oxo-1,4-dihydroquinolin-6-yl)-N,N-dimethylpyrrolidine-3-carboxamide]",100 to 1000 nM,1000 to 10000 nM,84%
"CN(C)C(=O)[C@H]1CCN(c2c(F)cc3[nH]c(-c4cc(C#N)ccc4Cl)cc(=O)c3c2F)C1 [Example 117, (S)-1-(2-(2-chloro-5-cyanophenyl)-5,7-difluoro-4-oxo-1,4-dihydroquinolin-6-yl)-N,N-dimethylpyrrolidine-3-carboxamide]",1000 to 10000 nM,1000 to 10000 nM,79%
